Source: patent US10202374B2, “6-aryl-4-phenylamino-quinazoline analogs as phosphoinositide-3-kinase inhibitors” (COUNCIL OF SCIENTIFIC & INDUSTRIAL RESEARCH, priority 2014, dated 2019)

Columns and labels:
[1] = biological target: PI3K-γ (Homo sapiens, UniProt P48736); test: PI3K-γ assay (ADP-Glo); type: biochemical; details: for IC50: read-out: PI3K inhibition IC50 -γ; for Fold-selectivity for PI3K-α with respect to -γ: α versus γ isoform
Description: The enzyme is assayed for 75 min after which 20 ul of ADP-Glo reagent is added. After a further incubation of 40 min, 40 ul of Kinase Detection Buffer is added. The assays are incubated for 40 min and then read on PerkinElmer Envision for 1 sec/well.

[2] = test system: PC-3 (prostate cancer) cells; test: MTT cytotoxicity assay, PC-3; type: cell-based; details: Homo sapiens, 48 h treatment, read-out: Anticancer activity IC50 PC-3
Description: (§1) Compounds proposed in present invention were evaluated for their cytotoxic effect against panel of 5 cancer cell line viz. Panc-1 (pancreatic cancer), MCF-7 (breast cancer), PC-3 (prostate), HL-60 (leukemia) and A-375 (melanoma) using MTT assay. In each well of a 96-well plate, 3×10^3 cells were grown in 100 μL of medium. After 24 h, each test molecules were added to achieve a final concentration of 10 to 0.01 μmol/L, respectively. After 48 h of treatment, 20 μL of 2.5 mg/mL MTT (Organics Research, Inc.) solution in phosphate buffer saline was added to each well. […], supernatant was removed and formazan crystals were dissolved in 200 μL of DMSO. Absorbance was then measured at 570 nm using an absorbance plate reader (Bio-Rad Microplate Reader). Data are expressed as the percentage of viable cells in treated relative to non-treated conditions. Each experiment was repeated thrice and data was expressed as mean±SD of three independent experiments (Mordant, P. et al., Mol. Cancer Ther. 2010, 9, 358).

[3] = test system: A-375 (melanoma) cells; test: MTT cytotoxicity assay, A375; type: cell-based; details: Homo sapiens, 48 h treatment, read-out: Anticancer activity IC50 A375
Description: as §1

[4] = biological target: PI3K-β (Homo sapiens, UniProt P42338); test: PI3K-β assay (ADP-Glo); type: biochemical; details: for IC50: read-out: PI3K inhibition IC50 -β; for Fold-selectivity for PI3K-α with respect to -β: α versus β isoform
Description: The enzyme is assayed for 60 min after which 20 ul of ADP-Glo reagent is added. After a further incubation of 40 min, 40 ul of kinase detection Buffer is added. The assays are incubated for 40 min and then read on PerkinElmer Envision for 1 sec/well.

[5] = biological target: PI3K-δ (Homo sapiens, UniProt O00329); test: PI3K-δ assay (ADP-Glo); type: biochemical; details: for IC50: read-out: PI3K inhibition IC50 -δ; for Fold-selectivity for PI3K-α with respect to -δ: α versus δ isoform
Description: Compounds proposed in present invention were evaluated for their inhibitory activity on phosphoinositide-3-kinase-alpha and other isoforms (beta, gamma and delta). […] The protocols used for these bioassays are as follows:
The enzyme is assayed for 120 min after which 20 ul of ADP-Glo reagent is added. After a further incubation of 40 min, 40 ul of Kinase Detection Buffer is added. The assays are incubated for 40 min and then read on PerkinElmer Envision for 1 sec/well.

[6] = test system: MCF-7 (breast cancer) cells; test: MTT cytotoxicity assay, MCF-7; type: cell-based; details: Homo sapiens, MCF7, 48 h treatment, read-out: Anticancer activity IC50 MCF-7
Description: as §1

[7] = test system: Panc-1 (pancreatic cancer) cells; test: MTT cytotoxicity assay, Panc-1; type: cell-based; details: Homo sapiens, 48 h treatment, read-out: Anticancer activity IC50 Panc-1
Description: as §1

[8] = test system: HL-60 (leukemia) cells; test: MTT cytotoxicity assay, HL-60; type: cell-based; details: Homo sapiens, 48 h treatment, read-out: Anticancer activity IC50 HL-60
Description: as §1

[9] = biological target: PI3K-α (Homo sapiens, UniProt P42336); test: PI3K-α assay (ADP-Glo); type: biochemical; details: for inhibition at 0.5 µM / % Inhibition of PI3K-α at 0.5 μM: preliminary screening; for IC50: read-out: PI3K inhibition IC50 -α
PI3K-α, sequence (P42336 whole entry): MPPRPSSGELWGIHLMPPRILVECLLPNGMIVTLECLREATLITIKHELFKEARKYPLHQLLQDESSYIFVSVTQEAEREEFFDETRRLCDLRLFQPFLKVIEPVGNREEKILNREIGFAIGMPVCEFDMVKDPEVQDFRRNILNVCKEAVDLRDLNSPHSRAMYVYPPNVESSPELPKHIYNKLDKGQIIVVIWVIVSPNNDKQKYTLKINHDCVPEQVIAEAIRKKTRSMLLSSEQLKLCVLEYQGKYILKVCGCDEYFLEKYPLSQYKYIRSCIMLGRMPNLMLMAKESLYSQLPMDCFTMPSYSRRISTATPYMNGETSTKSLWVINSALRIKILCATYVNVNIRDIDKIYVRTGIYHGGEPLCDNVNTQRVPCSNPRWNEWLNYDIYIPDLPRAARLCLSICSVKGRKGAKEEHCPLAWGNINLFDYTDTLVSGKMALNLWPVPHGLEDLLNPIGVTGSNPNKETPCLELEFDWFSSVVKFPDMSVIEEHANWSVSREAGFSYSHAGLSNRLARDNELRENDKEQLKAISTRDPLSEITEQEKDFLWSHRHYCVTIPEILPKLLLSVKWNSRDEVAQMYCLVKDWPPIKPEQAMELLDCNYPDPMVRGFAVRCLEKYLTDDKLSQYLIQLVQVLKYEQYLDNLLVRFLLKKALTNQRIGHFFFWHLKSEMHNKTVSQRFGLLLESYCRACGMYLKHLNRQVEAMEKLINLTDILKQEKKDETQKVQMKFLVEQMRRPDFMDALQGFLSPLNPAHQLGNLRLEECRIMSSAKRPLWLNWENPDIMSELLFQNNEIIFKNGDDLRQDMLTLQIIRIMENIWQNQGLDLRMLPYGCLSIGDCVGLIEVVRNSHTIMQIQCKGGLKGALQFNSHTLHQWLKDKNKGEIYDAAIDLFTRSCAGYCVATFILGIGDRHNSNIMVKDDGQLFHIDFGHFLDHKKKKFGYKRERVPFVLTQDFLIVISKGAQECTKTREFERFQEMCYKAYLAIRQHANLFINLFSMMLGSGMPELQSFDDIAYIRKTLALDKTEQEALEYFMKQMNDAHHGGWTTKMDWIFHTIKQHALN
PI3K-α, sequence (P27986 whole entry partner): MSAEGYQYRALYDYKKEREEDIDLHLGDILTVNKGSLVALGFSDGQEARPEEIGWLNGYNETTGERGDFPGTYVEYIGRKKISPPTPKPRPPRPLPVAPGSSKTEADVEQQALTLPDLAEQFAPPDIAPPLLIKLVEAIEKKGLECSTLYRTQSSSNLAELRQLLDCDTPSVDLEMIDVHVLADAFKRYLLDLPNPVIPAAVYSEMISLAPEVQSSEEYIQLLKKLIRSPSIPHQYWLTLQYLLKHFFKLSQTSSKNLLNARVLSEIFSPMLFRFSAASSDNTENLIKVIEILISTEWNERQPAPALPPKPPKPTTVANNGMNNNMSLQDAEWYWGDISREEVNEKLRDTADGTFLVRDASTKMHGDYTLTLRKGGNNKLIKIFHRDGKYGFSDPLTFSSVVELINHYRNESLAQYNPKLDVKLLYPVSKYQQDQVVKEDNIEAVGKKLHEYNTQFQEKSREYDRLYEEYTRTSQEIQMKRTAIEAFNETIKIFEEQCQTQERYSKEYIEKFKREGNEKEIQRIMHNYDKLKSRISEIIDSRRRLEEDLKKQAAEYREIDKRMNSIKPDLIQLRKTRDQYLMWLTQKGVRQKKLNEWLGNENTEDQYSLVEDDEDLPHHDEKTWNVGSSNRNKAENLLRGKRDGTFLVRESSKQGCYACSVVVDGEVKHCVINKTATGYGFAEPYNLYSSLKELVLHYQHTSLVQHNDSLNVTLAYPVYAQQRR
Description: The enzyme is assayed for 80 min after which 20 ul of ADP-Glo reagent is added. After a further incubation of 40 min, 40 ul of Kinase Detection Buffer is added. The assays are incubated for 40 min and then read on PerkinElmer Envision for 1 sec/well.

PI3K-δ, sequence (O00329 whole entry, species assumed, canonical isoform): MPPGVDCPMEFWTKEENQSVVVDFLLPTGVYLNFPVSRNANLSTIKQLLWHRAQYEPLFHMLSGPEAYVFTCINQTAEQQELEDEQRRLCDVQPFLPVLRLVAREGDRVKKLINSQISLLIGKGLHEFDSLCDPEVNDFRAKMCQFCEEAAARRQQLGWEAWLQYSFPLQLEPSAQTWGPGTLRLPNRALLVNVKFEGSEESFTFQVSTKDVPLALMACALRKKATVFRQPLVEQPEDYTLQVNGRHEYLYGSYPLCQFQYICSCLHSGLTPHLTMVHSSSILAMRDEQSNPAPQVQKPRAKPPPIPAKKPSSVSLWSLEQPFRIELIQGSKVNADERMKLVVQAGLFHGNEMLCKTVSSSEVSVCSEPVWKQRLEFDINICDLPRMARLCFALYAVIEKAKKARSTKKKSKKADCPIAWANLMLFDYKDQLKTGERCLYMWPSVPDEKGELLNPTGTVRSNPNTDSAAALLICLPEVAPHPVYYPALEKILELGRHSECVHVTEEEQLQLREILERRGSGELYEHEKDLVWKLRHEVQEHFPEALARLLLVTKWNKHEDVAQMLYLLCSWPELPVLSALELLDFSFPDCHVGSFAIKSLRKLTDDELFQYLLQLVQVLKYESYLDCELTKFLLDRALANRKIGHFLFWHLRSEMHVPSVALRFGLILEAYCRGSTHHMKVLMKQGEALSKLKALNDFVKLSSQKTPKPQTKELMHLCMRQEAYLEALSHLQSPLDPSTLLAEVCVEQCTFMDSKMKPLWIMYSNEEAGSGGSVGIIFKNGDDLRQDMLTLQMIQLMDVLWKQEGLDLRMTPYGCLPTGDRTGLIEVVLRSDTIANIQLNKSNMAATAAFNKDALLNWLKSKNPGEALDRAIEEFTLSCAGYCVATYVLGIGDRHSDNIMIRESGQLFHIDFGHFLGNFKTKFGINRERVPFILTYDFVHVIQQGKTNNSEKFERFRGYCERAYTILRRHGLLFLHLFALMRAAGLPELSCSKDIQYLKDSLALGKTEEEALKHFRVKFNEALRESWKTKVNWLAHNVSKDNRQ
PI3K-δ, sequence (P27986 whole entry partner, species assumed, canonical isoform): as the sequence (P27986 whole entry partner) above
PI3K-γ, sequence (P48736 whole entry, species assumed, canonical isoform): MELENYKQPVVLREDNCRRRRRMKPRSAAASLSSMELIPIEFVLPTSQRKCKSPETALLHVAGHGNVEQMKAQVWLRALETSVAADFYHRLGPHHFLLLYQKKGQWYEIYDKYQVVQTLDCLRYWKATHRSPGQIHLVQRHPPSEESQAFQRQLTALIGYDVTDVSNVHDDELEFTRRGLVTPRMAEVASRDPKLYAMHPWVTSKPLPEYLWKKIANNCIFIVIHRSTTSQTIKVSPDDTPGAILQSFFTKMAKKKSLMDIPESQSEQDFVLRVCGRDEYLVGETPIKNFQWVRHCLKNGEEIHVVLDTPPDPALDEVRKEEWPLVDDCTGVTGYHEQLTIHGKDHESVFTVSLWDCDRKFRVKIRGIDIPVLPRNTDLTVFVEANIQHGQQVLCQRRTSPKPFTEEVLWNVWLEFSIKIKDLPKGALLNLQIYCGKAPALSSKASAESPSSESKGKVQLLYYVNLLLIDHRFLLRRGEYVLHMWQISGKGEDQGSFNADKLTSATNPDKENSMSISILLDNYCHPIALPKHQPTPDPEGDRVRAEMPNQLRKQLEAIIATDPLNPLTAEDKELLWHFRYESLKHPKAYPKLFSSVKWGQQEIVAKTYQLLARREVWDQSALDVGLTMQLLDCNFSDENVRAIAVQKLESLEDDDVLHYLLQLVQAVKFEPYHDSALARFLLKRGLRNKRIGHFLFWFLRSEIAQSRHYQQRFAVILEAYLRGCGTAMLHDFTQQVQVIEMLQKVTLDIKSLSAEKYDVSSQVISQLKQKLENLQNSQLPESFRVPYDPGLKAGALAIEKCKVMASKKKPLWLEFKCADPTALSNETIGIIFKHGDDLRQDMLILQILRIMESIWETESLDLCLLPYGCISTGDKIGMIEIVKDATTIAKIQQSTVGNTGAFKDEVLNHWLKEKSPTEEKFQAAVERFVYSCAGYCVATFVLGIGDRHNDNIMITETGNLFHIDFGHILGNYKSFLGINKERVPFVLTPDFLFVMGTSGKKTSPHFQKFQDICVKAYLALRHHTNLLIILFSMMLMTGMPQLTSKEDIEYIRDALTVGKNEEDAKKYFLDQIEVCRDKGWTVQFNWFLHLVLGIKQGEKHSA
PI3K-β, sequence (P42338 whole entry, species assumed, canonical isoform): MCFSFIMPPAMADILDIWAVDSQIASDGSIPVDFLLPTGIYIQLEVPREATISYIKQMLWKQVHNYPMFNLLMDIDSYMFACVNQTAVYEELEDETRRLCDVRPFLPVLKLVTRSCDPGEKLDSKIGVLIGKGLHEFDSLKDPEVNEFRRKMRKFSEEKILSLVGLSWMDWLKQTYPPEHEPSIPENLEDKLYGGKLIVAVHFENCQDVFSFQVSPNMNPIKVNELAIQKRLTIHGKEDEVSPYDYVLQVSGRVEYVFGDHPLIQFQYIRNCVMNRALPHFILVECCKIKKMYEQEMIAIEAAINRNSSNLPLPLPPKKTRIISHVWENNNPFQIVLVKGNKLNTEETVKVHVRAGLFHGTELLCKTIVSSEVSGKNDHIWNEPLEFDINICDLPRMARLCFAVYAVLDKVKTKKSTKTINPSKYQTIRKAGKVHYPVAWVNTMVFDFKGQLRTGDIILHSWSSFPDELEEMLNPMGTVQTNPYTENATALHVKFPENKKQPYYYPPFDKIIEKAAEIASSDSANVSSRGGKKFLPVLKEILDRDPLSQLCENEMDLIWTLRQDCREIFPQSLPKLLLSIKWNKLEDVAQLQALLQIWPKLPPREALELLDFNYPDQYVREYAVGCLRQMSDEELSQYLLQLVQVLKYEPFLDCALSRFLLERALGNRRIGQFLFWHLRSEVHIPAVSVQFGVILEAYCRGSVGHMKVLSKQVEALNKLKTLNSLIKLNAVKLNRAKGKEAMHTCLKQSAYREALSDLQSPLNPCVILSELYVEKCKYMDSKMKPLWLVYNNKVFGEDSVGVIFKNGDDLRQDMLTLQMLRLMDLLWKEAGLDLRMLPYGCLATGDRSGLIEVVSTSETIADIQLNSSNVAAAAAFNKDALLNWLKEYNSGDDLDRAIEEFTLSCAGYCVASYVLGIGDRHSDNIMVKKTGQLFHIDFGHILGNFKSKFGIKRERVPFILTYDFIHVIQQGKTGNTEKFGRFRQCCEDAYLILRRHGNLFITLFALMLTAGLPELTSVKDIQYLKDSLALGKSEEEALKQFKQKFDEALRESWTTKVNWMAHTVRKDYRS
PI3K-β, sequence (P27986 whole entry partner, species assumed, canonical isoform): as the sequence (P27986 whole entry partner) above

| Compound | IC50 [1] | Fold-selectivity for PI3K-α with respect to -γ [1] | IC50 [4] | Fold-selectivity for PI3K-α with respect to -β [4] | IC50 [5] | Fold-selectivity for PI3K-α with respect to -δ [5] | inhibition at 0.5 µM [9] | IC50 [9] | % Inhibition of PI3K-α at 0.5 μM [9] | % inhibition of PI3K-β ([4]; up to 20 μM) | IC50 [2] | IC50 [3] | IC50 [6] | IC50 [7] | IC50 [8] |
| --- | --- | --- | --- | --- | --- | --- | --- | --- | --- | --- | --- | --- | --- | --- | --- |
| CC(=O)Nc1cccc(-c2ccc3ncnc(Nc4ccc(CC#N)cc4)c3c2)c1 [Compound 15, 6-(3-acetylaminophenyl)-4-(4-cyanomethyl)phenylamino quinazoline] | 6.95 µM | 14.6 fold | > 10 µM | >21 fold | > 10 µM | >21 fold | 36.8% | 0.475 µM | – | – | 26 µM | 38 µM | 14 µM | 38 µM | 23 µM |
| N#CCc1ccc(Nc2ncnc3ccc(-c4ccc5c(c4)OCCO5)cc23)cc1 [Compound 20, 6-(2,3-dihydrobenzo[b][1,4]dioxin-6-yl)-4-(4-cyanomethyl)phenylamino-quinazoline] | 1.37 µM | 4 fold | > 10 µM | >29.2 fold | > 10 µM | >29.2 fold | 33% | 0.342 µM | – | – | 34 µM | 27 µM | 34 µM | 32 µM | 21 µM |
| N#CCc1ccc(Nc2ncnc3ccc(-c4ccc5[nH]ccc5c4)cc23)cc1 [Compound 26, 6-(1H-indol-5-yl)-4-(4-cyanomethyl)phenylamino-quinazoline] | 0.75 µM | 3.7 fold | > 10 µM | >49.7 fold | > 10 µM | >49.7 fold | > 40% | 0.201 µM | 47.5% | – | 24 µM | 31 µM | 7 µM | 16 µM | 18 µM |
| N#CCc1ccc(Nc2ncnc3ccc(-c4cncc5ccccc45)cc23)cc1 [Compound 29, 6-(isoquinolin-4-yl)-4-(4-cyanomethyl)phenylamino-quinazoline] | 8.44 µM | 56 fold | > 20 µM | >133 fold | 0.88 µM | 5.9 fold | > 40% | 0.15 µM | 48.8% | 0% | 9 µM | 12 µM | 12 µM | 9 µM | 10 µM |

Now those with a lower IC50 [1], led by results:

| IC50 [1] | Fold-selectivity for PI3K-α with respect to -γ [1] | IC50 [4] | Fold-selectivity for PI3K-α with respect to -β [4] | IC50 [5] | Fold-selectivity for PI3K-α with respect to -δ [5] | inhibition at 0.5 µM [9] | IC50 [9] | % Inhibition of PI3K-α at 0.5 μM [9] | % inhibition of PI3K-β ([4]; up to 20 μM) | Compound | IC50 [2] | IC50 [3] | IC50 [6] | IC50 [7] | IC50 [8] |
| --- | --- | --- | --- | --- | --- | --- | --- | --- | --- | --- | --- | --- | --- | --- | --- |
| 0.19 µM | 0.6 fold | > 10 µM | >31.1 fold | > 10 µM | >31.1 fold | > 40% | 0.321 µM | 48.6% | – | N#CCc1ccc(Nc2ncnc3ccc(-c4ccc5c(c4)OCO5)cc23)cc1 [Compound 21, 6-(benzo[d][1,3]dioxol-5-yl)-4-(4-cyanomethyl)phenylamino-quinazoline] | 7 µM | 24 µM | 34 µM | 33 µM | 27 µM |
| 0.36 µM | 0.5 fold | > 10 µM | >14.2 fold | > 10 µM | >14.2 fold | > 40% | 0.704 µM | 45.6% | – | N#CCc1ccc(Nc2ncnc3ccc(-c4ccncc4)cc23)cc1 [Compound 28, 6-(pyridin-4-yl)-4-(4-cyanomethyl)phenylamino-quinazoline] | 76 µM | 35 µM | 32 µM | 39 µM | 32 µM |
